The record followed here is patent US11472788B2, “Benzoimidazoles as selective inhibitors of indoleamine 2,3-dioxygenases” (BEIGENE, LTD., priority 2017, dated 2022).

One assay has as its target Recombinant IDO1 (Homo sapiens (Human), UniProt P14902). The assay is described as follows: IDO1 enzymatic assay. It is filed as biochemical. Conditions: 50 nM IDO1, 1.3 mM D-tryptophan, pH 7.5, read-out: Enzyme assay IC50. The method, then:
Recombinant IDO1 was overexpressed and purified from E. coli cells with an N-terminal His tag. IDO1 enzymatic assay was carried out using a methodology similar to described in the literature (J. Biol. Chem. (1980), 255, 1339-1345). The reaction mixture contains 50 nM IDO1, 1.3 mM D-tryptophan, 5 mM L-ascorbic acid, […] methylene Blue, 0.4 mg/mL catalase and compound (or DMSO) in a buffer containing 50 mM potassium phosphate pH 7.5 and 0.1% BSA. After incubation at 24° C. for 1.5 hours, absorbance of the reaction mixture was continuously read at 321 nm to monitor the formation of N′-formylkynurenine by a FULOstar OMEGA plate reader (BMG LABTECH) for 1 hour. The enzymatic activity was determined by measuring the slope of the linear absorbance increase as a function of time. The IC50s are calculated based on remaining enzyme activity in the presence of increasing concentrations of compounds.

The target in assay [1] is cellular IDO1 in HeLa cells (Homo sapiens (Human), UniProt P14902). The assay can be described thus: HeLa Cell-Based IDO1 Kyn (Kynurenine) Production Assay. Conditions: IFN-γ induced IDO1, 48 hours incubation, Kyn absorbance at 480 nm. In short, it runs like this: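 Compounds added to HeLa cells together with IFN-γ (100 ng/mL final) and 0.4 mM L-Trp, 48 h at 37 °C. Kynurenine in TCA-deproteinized supernatant measured colorimetrically with 4-(dimethylamino)benzaldehyde at 480 nm; IC50 from four-parameter logistic fit.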
Sequence of cellular IDO1 in HeLa cells (P14902 whole entry): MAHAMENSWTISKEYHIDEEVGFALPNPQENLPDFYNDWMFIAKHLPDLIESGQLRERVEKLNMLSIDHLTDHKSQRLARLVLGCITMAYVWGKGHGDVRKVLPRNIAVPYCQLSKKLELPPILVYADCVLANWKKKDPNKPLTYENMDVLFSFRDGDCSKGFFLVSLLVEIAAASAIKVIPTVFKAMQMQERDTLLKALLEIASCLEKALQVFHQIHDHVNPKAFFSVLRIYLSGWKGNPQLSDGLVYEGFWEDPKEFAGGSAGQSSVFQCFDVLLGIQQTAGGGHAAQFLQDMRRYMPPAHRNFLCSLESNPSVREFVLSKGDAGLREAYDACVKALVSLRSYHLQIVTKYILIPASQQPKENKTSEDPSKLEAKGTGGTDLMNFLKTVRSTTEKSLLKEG

Sequence of Recombinant IDO1 (P14902 whole entry, species assumed): as the sequence (P14902 whole entry) above

In the case of `Cc1ccc2[nH]c(C[C@H]3CC[C@H](c4ccnc5ccc(F)cc54)CC3)nc2c1` [Example A2a, 6-fluoro-4-((1r,4r)-4-((5-methyl-1H-benzo[d]imidazol-2-yl)methyl)cyclohexyl)quinoline], the IC50 on Recombinant IDO1 was more than 10 µM. For the same compound, the midpoint of the response in assay [1], the EC50, lay at 241 nM.
For `Fc1ccc2nccc(C3CCC(Cc4nc5cc(Cl)c(Cl)cc5[nH]4)CC3)c2c1` (stereo not shown) [Example A12, 4-(4-((5,6-dichloro-1H-benzo[d]imidazol-2-yl)methyl)cyclohexyl)-6-fluoroquinoline], the IC50 on Recombinant IDO1 is more than 10 µM. Moreover, the response in assay [1] was half-maximal at 11 nM (EC50).
For `Clc1ccc2[nH]c(CC3CCN(c4ccnc5ccccc45)CC3)nc2c1` [Example A40, 4-(4-((5-chloro-1H-benzo[d]imidazol-2-yl)methyl)piperidin-1-yl)quinoline], in that order: more than 10 µM and 852 nM.
Consider `Clc1ccc2[nH]c(CC3CCC(c4cccc5ncccc45)CC3)nc2c1` (stereo not shown) [Example A22, 5-(4-((5-chloro-1H-benzo[d]imidazol-2-yl)methyl)cyclohexyl)quinoline], for which the IC50 on Recombinant IDO1 is more than 0.01 µM. Moreover, in assay [1], the concentration for a half-maximal effect (EC50) came out at 148 nM.
The like results for `Fc1ccc([C@H]2CC[C@@H](Cc3nc4cc(Cl)ccc4[nH]3)CC2)cc1` [Example A30b, 5-chloro-2-(((1s,4s)-4-(4-fluorophenyl)cyclohexyl)methyl)-1H-benzo[d]imidazole] were, in that order, more than 10 µM and 39 nM.
For `c1ccc(C2CCC(Cc3nc4ccccc4[nH]3)CC2)cc1` (stereo not shown) [Example A32, 2-((4-phenylcyclohexyl)methyl)-1H-benzo[d]imidazole], the IC50 on Recombinant IDO1 came out at 8.1 µM. In assay [1], this compound came in with a 50% effective concentration (EC50) of 143 nM.
For `Clc1ccc2[nH]c(C[C@H]3CC[C@H](c4ccnc5ccccc54)CC3)nc2c1` [Example A10a, 4-((1r,4r)-4-((5-chloro-1H-benzo[d]imidazol-2-yl)methyl)cyclohexyl)quinoline], in that order: more than 10 µM and 91 nM.
The like results for `Cc1cc2nc(C[C@H]3CC[C@H](c4ccnc5ccc(F)cc54)CC3)[nH]c2cc1C` [Example A9a, 4-((1r,4r)-4-((5,6-dimethyl-1H-benzo[d]imidazol-2-yl)methyl)cyclohexyl)-6-fluoroquinoline] were, in that order, more than 10 µM and 186 nM.
The like results for `Clc1ccc2[nH]c(CC3CCC(c4ccc5ccccc5n4)CC3)nc2c1` (stereo not shown) [Example A18, 2-(4-((5-chloro-1H-benzo[d]imidazol-2-yl)methyl)cyclohexyl)quinoline] were, in that order, 5.3 µM and 50 nM.
Consider `Clc1ccc2[nH]c(C[C@H]3CC[C@H](c4ccc5ncccc5c4)CC3)nc2c1` [Example A23a, 6-((1r,4r)-4-((5-chloro-1H-benzo[d]imidazol-2-yl)methyl)cyclohexyl)quinoline], for which the half-maximal inhibitory concentration (IC50) at Recombinant IDO1 was more than 10 µM. In assay [1], the 50% effective concentration (EC50) stood at 56 nM.
The like results for `Fc1cc2nc(C[C@H]3CC[C@@H](c4ccccc4)CC3)[nH]c2cc1Br` [Example A37b, 6-bromo-5-fluoro-2-(((1s,4s)-4-phenylcyclohexyl)methyl)-1H-benzo[d]imidazole] were, in that order, 6.9 µM and 99 nM.
For `FC(F)(F)c1ccc2[nH]c(C[C@H]3CC[C@H](c4ccccc4)CC3)nc2c1` [Example A33a, 2-(((1r,4r)-4-phenylcyclohexyl)methyl)-5-(trifluoromethyl)-1H-benzo[d]imidazole], the 50% inhibitory concentration (IC50) on Recombinant IDO1 was more than 10 µM. The EC50 in assay [1] is more than 10000 nM.
As to `Clc1cccc2[nH]c(C[C@H]3CC[C@@H](c4ccccc4)CC3)nc12` [Example A35, 4-chloro-2-(((1s,4s)-4-phenylcyclohexyl)methyl)-1H-benzo[d]imidazole], the IC50 at Recombinant IDO1 is more than 10 µM. In assay [1], this compound gave an EC50 of 107 nM.
The like results for “4-((1s,4s)-4-((5-chloro-1H-benzo[d]imidazol-2-yl)methyl)cyclohexyl)-6-fluoroquinoline [Example A1b]” were, in that order, more than 10 µM and 8 nM.
For `Clc1ccc2[nH]c(C[C@H]3CC[C@H](c4ccccc4)CC3)nc2c1` [Example A34a, 5-chloro-2-(((1r,4r)-4-phenylcyclohexyl)methyl)-1H-benzo[d]imidazole], at Recombinant IDO1, the IC50 amounted to 8 µM. The same compound returned a 50% effective concentration (EC50) in assay [1] of 168 nM.
For the compound `Fc1ccc2nccc(N3CCC(Cc4nc5cc(Cl)ccc5[nH]4)CC3)c2c1` [Example A41, 4-(4-((5-chloro-1H-benzo[d]imidazol-2-yl)methyl)piperidin-1-yl)-6-fluoroquinoline], the IC50 on Recombinant IDO1 is more than 10 µM. In assay [1], this compound gave an EC50 of 481 nM.
Turning to `Fc1ccc2nccc(C3CCC(Cc4nc5cc(Cl)ccc5[nH]4)CC3)c2c1` (stereo not shown) [Example A1a, 4-(4-((5-chloro-1H-benzo[d]imidazol-2-yl)methyl)cyclohexyl)-6-fluoroquinoline], on Recombinant IDO1, the half-maximal inhibitory concentration (IC50) is more than 10 µM. Also, in assay [1], the EC50 was 51 nM.
The like results for `Fc1ccc2nccc([C@H]3CC[C@H](Cc4nc5cc(C6CC6)ccc5[nH]4)CC3)c2c1` [Example A4a, 4-((1r,4r)-4-((5-cyclopropyl-1H-benzo[d]imidazol-2-yl)methyl)cyclohexyl)-6-fluoroquinoline] were, in that order, more than 10 µM and 131 nM.
For `Cc1cc2nc(C[C@H]3CC[C@@H](c4ccnc5ccc(F)cc54)CC3)[nH]c2cc1C` [Example A9b, 4-((1s,4s)-4-((5,6-dimethyl-1H-benzo[d]imidazol-2-yl)methyl)cyclohexyl)-6-fluoroquinoline], in that order: more than 10 µM and 24 nM.
For `Fc1ccc([C@H]2CC[C@H](Cc3nc4cc(Cl)ccc4[nH]3)CC2)cc1` [Example A30a, 5-chloro-2-(((1r,4r)-4-(4-fluorophenyl)cyclohexyl)methyl)-1H-benzo[d]imidazole], in that order: more than 10 µM and 44 nM.
With `Fc1cc2nc(C[C@H]3CC[C@H](c4ccccc4)CC3)[nH]c2cc1Br` [Example A37a, 6-bromo-5-fluoro-2-(((1r,4r)-4-phenylcyclohexyl)methyl)-1H-benzo[d]imidazole], the IC50 on Recombinant IDO1 was more than 10 µM. The compound also returned a concentration giving a half-maximal response (EC50) in assay [1] of 223 nM.
As to `Clc1ccc2[nH]c(C[C@H]3CC[C@@H](c4ccc5ncccc5c4)CC3)nc2c1` [Example A23b, 6-((1s,4s)-4-((5-chloro-1H-benzo[d]imidazol-2-yl)methyl)cyclohexyl)quinoline], the IC50 on Recombinant IDO1 amounted to 3.25 µM. In addition, a half-maximal effect in assay [1] (EC50) was put at 24 nM.
As for `Cc1ccc2[nH]c(C[C@H]3CC[C@@H](c4ccnc5ccc(F)cc54)CC3)nc2c1` [Example A2b, 6-fluoro-4-((1s,4s)-4-((5-methyl-1H-benzo[d]imidazol-2-yl)methyl)cyclohexyl)quinoline], the half-inhibitory concentration (IC50) on Recombinant IDO1 is more than 10 µM. The compound further had an EC50 in assay [1] of 53 nM.
Regarding `Clc1ccc2[nH]c(C[C@H]3CC[C@@H](c4ccnc5ccccc54)CC3)nc2c1` [Example A10b, 4-((1s,4s)-4-((5-chloro-1H-benzo[d]imidazol-2-yl)methyl)cyclohexyl)quinoline], the half-maximal inhibitory concentration (IC50) on Recombinant IDO1 is more than 10 µM. Moreover, it took 10 nM to reach a half-maximal effect in assay [1] (EC50).
The like results for `Clc1ccc2[nH]c(CC3CCC(c4cnc5ccccc5c4)CC3)nc2c1` (stereo not shown) [Example A19, 3-(4-((5-chloro-1H-benzo[d]imidazol-2-yl)methyl)cyclohexyl)quinoline] were, in that order, more than 10 µM and 8.2 nM.
For `Fc1ccc2nccc([C@H]3CC[C@@H](Cc4nc5cc(F)c(F)cc5[nH]4)CC3)c2c1` [Example A6b, 4-((1s,4s)-4-((5,6-difluoro-1H-benzo[d]imidazol-2-yl)methyl)cyclohexyl)-6-fluoroquinoline], in that order: more than 10 µM and 14 nM.

The IC50 is the concentration that gives 50% inhibition. Usually EC50 stands for the concentration giving half of the maximal effect. Higher therefore signals a need for much substance.
